{"source": "patent US20170112861A1", "about": "“DRUG DELIVERY ENHANCER COMPRISING SUBSTANCE FOR ACTIVATING LYSOPHOSPHOLIPID RECEPTORS” (Osaka University, priority 2014, published 2017)", "key": {"[1]": {"tested_on": "lumen of tumor blood vessels of LLC cell tumors", "assay": "Structural changes in lumen of tumor blood vessels (scanning electron microscopy)", "assay_type": "in vivo", "conditions": "LLC tumor-bearing mice, LPA 3 mg/kg i.p., 24 hours after administration", "method": "LLC cells were subcutaneously inoculated into C57BL/6 NCrSlc mice aged 8 weeks (females, SLC, Inc.) in the same manner as in Example 1. An LPA administration solution was prepared in the same manner as in Example 1. Mice on day 9 post-inoculation of LLC cells (individuals with a tumor volume of 60 to 80 mm^3) were subjected to the experiment. The mice were divided into two groups: control group and LPA group (n=3). LPA (3 mg/kg in 100 μL PBS) or PBS (100 μL) was administered intraperitoneally. At 24 hours after LPA or PBS administration, mice were perfusion fixed under anesthesia with pentobarbital (Kyoritsu Seiyaku Corporation). The fixative used was 0.1 M phosphate buffer (pH 7.4) containing 2% formaldehyde and 2.5% glutaraldehyde. Tumors were then harvested and immersed in the same fixative as that used for perfusion and shaken at 4° C. overnight. The specimens were further immersed in 0.1 M phosphate buffer (pH 7.4) containing 1% osmium tetroxide and 0.5% potassium ferrocyanide. The specimens were dehydrated in an ascending series of ethanol, then the alcohol was replaced with t-butyl alcohol and the specimens were freeze-dried."}, "LLC cell tumors [2]": {"tested_on": "LLC cell tumors", "assay": "Doxorubicin delivery from tumor blood vessels to tumor tissues after LPA administration", "assay_type": "in vivo", "conditions": "LLC tumor-bearing mice, LPA 3 mg/kg i.p., doxorubicin 1.5 mg/kg i.v. 24 hours later, tumors harvested after 20 minutes", "method": "LLC cells were subcutaneously inoculated into C57BL/6 NCrSlc mice aged 8 weeks (females, SLC, Inc.) in the same manner as in Example 1. An LPA administration solution was prepared in the same manner as in Example 1. On day 11 post-inoculation of LLC cells, mice with a tumor volume of 100 to 120 mm^3 were selected. The mice were divided into two groups: control group and LPA group (n=3). LPA (3 mg/kg in 100 μL PBS) or PBS (100 μL) was administered intraperitoneally. At 24 hours after LPA or PBS administration, doxorubicin (doxorubicin hydrochloride, Nippon Kayaku Co., Ltd.) was administered to the tail vein of the mice at a dose of 1.5 mg/kg under anesthesia with pentobarbital. The doxorubicin was prepared as a solution by dissolving and diluting the doxorubicin hydrochloride in physiological saline (Otsuka Pharmaceutical Co., Ltd.) to a concentration of 1.5 mg/kg and homogenizing the solution with an ultrasonic cleaner for 1 minute before administration. Doxorubicin is an autofluorescent anticancer drug that can be detected at an excitation wavelength of 480 nm and a measurement wavelength of 575 nm. At 20 minutes after administration of doxorubicin, the tumors were harvested from the mice, and the tumor specimens were prepared in the same manner as in Example 1 except that the thickness of the sections was 20 μm. […]"}, "LLC cell tumors [3]": {"tested_on": "LLC cell tumors", "assay": "Delivery of FITC-labeled dextrans (70 kDa, 2000 kDa) to tumor tissues after LPA administration", "assay_type": "in vivo", "conditions": "LLC tumor-bearing mice, LPA 3 mg/kg i.p., dextran i.v. 24 hours later, tumors harvested after 30 minutes", "method": "LLC cells were subcutaneously inoculated into C57BL/6 NCrSlc mice aged 8 weeks (females, SLC, Inc.) in the same manner as in Example 1. An LPA administration solution was prepared in the same manner as in Example 1. On day 11 post-inoculation of LLC cells, mice with a tumor volume of 100 to 120 mm^3 were selected. The mice were divided into four groups: control and LPA groups with administration of 70 kDa dextran, and control and LPA groups with administration of 2000 kDa dextran (n=3). LPA (3 mg/kg in 100 μL PBS) or PBS (100 μL) was administered intraperitoneally. At 24 hours after LPA or PBS administration, each type of dextran was administered to the tail vein of the mice under anesthesia with pentobarbital. The dextrans used (70 kDa and 2000 kDa) were FITC-labeled dextrans (Sigma). Each type of dextran was prepared as a solution by dissolving and diluting the FITC-labeled dextran in PBS to a concentration of […], and 100 μL of the solution was used for the administration. At 30 minutes after administration of each type of dextran, the tumors were harvested from the mice, and the tumor specimens were prepared in the same manner as in Example 4. The specimens were observed and photographed under a confocal laser microscope (Leica)."}, "[4]": {"tested_on": "Mouse pancreatic vascular endothelial cell line (MS-1)", "assay": "In vitro barrier function of endothelial cell-cell junctions (ECIS-Zθ, resistance between cells Rb)", "assay_type": "cell-based", "conditions": "MS-1 cells, 10 μM", "method": "In vitro barrier function of the cell-cell junctions of vascular endothelial cells in the presence of LPA or VPC 31144 (S) was analyzed using a real-time cell ECIS-Zθ analyzer (Applied Biophysics).\nLPA and VPC 31144 (S) were each dissolved in 50% ethanol as a 10 mM LPA stock solution and stored at −30° C. Before use, the LPA stock solution was thawed and homogenized with an ultrasonic cleaner (SND Co., Ltd.) for 1 minute. The solution was diluted in a serum-free culture medium supplemented with 0.1% BSA to a concentration of 10 μM.\nMouse pancreatic vascular endothelial cell line (MS-1) was used. The cells were suspended in DMEM (Sigma) containing 5% FBS. The cell suspension was seeded on a well plate with electrodes (8W10E+, 8 wells) specially designed for the analyzer at a density of 1×10^5 cells in 400 μL per well, and the cells were cultured overnight in an incubator to confluence. The medium was replaced by serum-free culture medium containing 0.1% BSA, and the cells were incubated for 4 hours. The medium was replaced by culture medium (serum-free culture medium containing 0.1% BSA) containing 10 μM LPA or VPC 31144 (S). The medium of the control cultures was replaced by serum-free culture medium containing 0.1% BSA. After replacement of the medium, resistance between cells (Rb) was measured in real time to evaluate the barrier function."}, "B16-BL6 cells": {"tested_on": "B16-BL6 cells", "assay": "Lung metastasis from primary lesion in B16-BL6 cell tumor-bearing mice", "assay_type": "in vivo", "conditions": "B16-BL6 tumors, LPA 3 mg/kg i.p. once daily until day 21, counted on day 42, vs control, p<0.01", "method": "B16-BL6 cells (1×10^6 cells in 100 μL PBS per animal) were subcutaneously injected into C57BL/6 NCrSlc mice aged 8 weeks (females, SLC, Inc.). On day 7 post-inoculation of B16-BL6 cells, mice with a tumor volume of 30 to 50 mm^3 were selected. The mice were divided into two groups: control group and LPA group (n=3). LPA (3 mg/kg in 100 μL PBS) or PBS (100 μL) was administered intraperitoneally. LPA or PBS was administered once daily until day 21 post-inoculation. On day 42 post-inoculation of B16-BL6 cells, mice were euthanized and the lung was harvested. The number of metastatic colonies in the harvested lung was counted under a stereoscopic microscope (Leica). For the statistical analysis, Student's t-test was performed."}}, "data": [{"substance": "lysophosphatidic acid [LPA]", "values": [{"measurement": "intraluminal surface of tumor blood vessels", "setting": "[1]", "value": "the intraluminal surface of the blood vessels was very smooth"}, {"measurement": "delivery of doxorubicin from blood vessels to tumor", "setting": "LLC cell tumors [2]", "value": "delivery of doxorubicin from the blood vessels to tumors in the deep lobe was observed"}, {"measurement": "delivery of 70 kDa FITC-labeled dextran to tumor", "setting": "LLC cell tumors [3]", "value": "delivery of 70 kDa and 2000 kDa dextrans to tumors in the deep lobe was observed"}, {"measurement": "delivery of 2000 kDa FITC-labeled dextran to tumor", "setting": "LLC cell tumors [3]", "value": "delivery of 70 kDa and 2000 kDa dextrans to tumors in the deep lobe was observed"}, {"measurement": "duration of the increased barrier function", "setting": "[4]", "value": "the increased barrier function in endothelial cells was maintained over a long period of time"}, {"measurement": "electric resistance (Rb), barrier function in endothelial cells", "setting": "[4]; serum-free medium with 0.1% BSA, vs control", "value": "increased the electric signals as compared with the control"}, {"measurement": "lung metastasis (number of lung metastatic colonies)", "setting": "B16-BL6 cells", "value": "significantly inhibited"}]}]}
